{"source": "patent US9975853B2", "about": "“Tetrahydroisoquinolinone derivatives and their use in the inhibition of the HSP70 protein” (Julius-Maximilians-Universitaet Wuerzburg, priority 2014, dated 2018)", "key": {"HSP73": {"biological_target": "T1, HSP73 (Homo sapiens, UniProt P11142)", "T1 construct": "endogenous in cells; host or cells: INA-6 multiple myeloma cells", "T1 sequence (P11142 whole entry)": "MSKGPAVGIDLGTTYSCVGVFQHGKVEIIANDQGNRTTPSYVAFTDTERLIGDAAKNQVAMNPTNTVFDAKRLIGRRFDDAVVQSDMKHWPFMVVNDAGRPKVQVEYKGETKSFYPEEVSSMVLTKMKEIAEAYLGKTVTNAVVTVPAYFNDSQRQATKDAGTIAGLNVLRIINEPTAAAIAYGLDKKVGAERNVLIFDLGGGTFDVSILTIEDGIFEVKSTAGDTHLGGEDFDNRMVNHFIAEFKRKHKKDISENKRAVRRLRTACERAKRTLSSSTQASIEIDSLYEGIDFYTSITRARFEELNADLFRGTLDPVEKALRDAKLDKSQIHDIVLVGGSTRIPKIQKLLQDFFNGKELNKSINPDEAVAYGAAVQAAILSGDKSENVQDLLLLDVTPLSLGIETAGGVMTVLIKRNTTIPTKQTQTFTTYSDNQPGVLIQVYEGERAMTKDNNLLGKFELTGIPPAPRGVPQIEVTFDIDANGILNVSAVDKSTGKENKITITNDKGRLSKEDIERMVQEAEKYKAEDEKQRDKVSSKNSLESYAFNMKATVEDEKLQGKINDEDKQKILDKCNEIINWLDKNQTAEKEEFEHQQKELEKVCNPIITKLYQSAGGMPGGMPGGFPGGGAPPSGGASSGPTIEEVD", "assay": "Western blot analysis of HSP73 expression in INA-6 cells", "format": "cell-based", "settings": "INA-6, 0.6 μM, with Z-VAD-FMK 50 μM", "description": "(§1) Western Blot Analysis. Protein expression levels were determined with Western blotting procedures (M. Chatterjee, et al., Blood 2002, 100, 3311-3318). Following separation by SDS-PAGE, proteins were transferred onto nitrocellulose membranes (Schleicher & Schuell, Dassel, Germany) and stained with antibodies against Hsp72, Hsp73, Hsp90 (all from Enzo Life Science, Lörrach, Germany), AIF, lamin A, caspases 9 and 3, PARP (all from Santa Cruz, Heidelberg, Germany). An anti-α tubulin antibody (Sigma, Deisenhofen, Germany) was employed to assess equal loading. Secondary antibodies used were anti-rat (Enzo Life Science), anti-rabbit and anti-mouse (both from GE Healthcare, Little Chalfont, UK). […] The heat shock proteins HSP72 and HSP73 critically interact with HSP90 in order to mediate an essential chaperone function for a multitude of proteins including various signaling intermediates. According to an established HSP72/73-dependent client protein signature and its role for survival in MM, the proposed anti-HSP72/73 effect of trans-7b in the INA-6 multiple myeloma (MM) cell line model was evaluated. […] Lysates were cleared by centrifugation, measured by quantitative protein assay (Bio-Rad, München, Germany) and subjected to SDS gel electrophoresis. […]"}, "caspases 9 and 3": {"system": "caspases 9 and 3", "assay": "Apoptosis assay: cleavage and activation of caspases 9 and 3, PARP cleavage in INA-6 cells (Western blot)", "format": "cell-based, human", "settings": "INA-6, 0.6 μM, 24 hours", "description": "Apoptosis Assays. Hsp70-dependent prevention of apoptosis was investigated by analyses of the apoptosis-inducing factors (AIF) and of the caspases 9 and 3 in INA-6 cells. INA-6 cells were treated with 0.6 μM of compound trans-7b for 8 hours prior to analyze nuclear translocation of AIF. Staining of the nuclear protein lamin A was used as a loading control. […] Analysis of cleavage of the bona fide caspase substrate PARP served as a control for caspase activation. Co-treatment with the pan-caspase inhibitor Z-VAD-FMK (50 μM) was employed as another specificity control.\nIn FIG. 2A Western blot analyses of caspases 9 and 3, and the caspase substrate PARP (upper panel), and viability analyses (lower panel) of INA-6 MM cells upon treatment with trans-7b for 24 hours are shown. […] Lysates were cleared by centrifugation, measured by quantitative protein assay (Bio-Rad, München, Germany) and subjected to SDS gel electrophoresis. […] INA-6 cells were washed in PBS, incubated for 15 minutes in 100 ml binding buffer (10 mM HEPES/NaOH, pH 7.4, 140 mM NaCl, 2.5 mM CaCl2) containing 2.5 mL annexin V-FITC mix and 1 mg/ml PI and analyzed by flow cytometry (FACSCalibur/CELLQuest; Becton Dickinson, Heidelberg, Germany). […] Raw data of three independent experiments have been calculated to establish means, standard deviation and dose-effect curves of trans-7b."}, "[1]": {"system": "HSP70/HSP90 multi-chaperone client proteins", "assay": "Western blot analysis of HSP70/HSP90 chaperone-dependent signaling intermediates and substrates in INA-6 cells", "format": "cell-based, human", "settings": "INA-6, 0.6 μM", "description": "as §1"}}, "note": "Entries after “also recorded” stand apart in the source; their conditions may differ."}
{"smiles": "COc1ccc(C2C(C(=O)Nc3cccc(C)n3)c3ccccc3C(=O)N2c2ccccc2)cc1", "note": "(stereo not drawn) [trans-7b, trans-3-(4-Methoxyphenyl)-N-(6-methylpyridin-2-yl)-1-oxo-2-phenyl-1,2,3,4-tetrahydroisoquinoline-4-carboxamide]", "values": [{"measurement": "HSP73 constitutive expression level", "setting": "HSP73", "result": "decreases; also recorded: reduced"}, {"measurement": "caspase 9 and 3 cleavage/activation (PARP cleavage)", "setting": "caspases 9 and 3", "result": "activation of the caspases 9 and 3; also recorded: sequential caspase 9 and 3 cleavage leading to their activation"}, {"measurement": "AKT, C-Raf, RIP, IKKα and MEK levels", "setting": "[1]", "result": "strongly downregulated"}, {"measurement": "p-MEK, p-ERK and pSTAT3 levels", "setting": "[1]", "result": "downregulated"}]}
